This passage reports GI50 and TGI results from PubChem BioAssay (NCI).

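1) Cells in 96-well plates. 2) Compound, 48 h, 5 concentrations. 3) Linear interpolation between surrounding doses. 4) Unreached endpoint = highest concentration. GI50 is the concentration that inhibits growth by half. TGI marks complete inhibition of growth.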

Test systems include HCT-15 colon; HOP-62 NSCLC; HOP-92 NSCLC; NCI-H522 lung; OVCAR-3 ovarian; RXF 393 renal; SF-539 CNS; SW-620 colon; TK-10 renal; U251 CNS.
Assay in all cases: NCI tumour cell line growth inhibition, 48 h

`Cc1nc2cncc(C#Cc3cncc(C(=O)Nc4ccc(CN5CCN(C)CC5)c(C(F)(F)F)c4)c3)c2nc1C`: the GI50 in the assay with HCT-15 colon is 0.286 µM; in the assay on HOP-62 NSCLC it was 0.839 µM; with HOP-92 NSCLC, 0.204 µM; in the assay on NCI-H522 lung, 0.466 µM; in the assay on OVCAR-3 ovarian, 0.899 µM; with RXF 393 renal, 0.268 µM. The GI50 in the assay on SF-539 CNS was 0.207 µM; with SW-620 colon, 0.284 µM; in the assay with TK-10 renal it was 0.727 µM; in the assay with U251 CNS, 0.559 µM. The TGI with HCT-15 colon came out at 5.92 µM; with HOP-62 NSCLC, 5 µM; in the assay with HOP-92 NSCLC, 1.13 µM; in the assay on NCI-H522 lung, 8.21 µM; in the assay with OVCAR-3 ovarian, 6.54 µM; in the assay with RXF 393 renal, 1.76 µM. In addition, the TGI is 1.02 µM in the assay with SF-539 CNS, 1.64 µM in the assay with SW-620 colon, 7 µM in the assay on TK-10 renal and 7.43 µM in the assay with U251 CNS.
With `CCCCCCCCCCCCCC[P+](CCCCCC)(CCCCCC)CCCCCC`, the GI50 in the assay with HCT-15 colon was 0.27 µM; in the assay with HOP-62 NSCLC, 0.229 µM; in the assay on HOP-92 NSCLC it was 0.0299 µM; in the assay with NCI-H522 lung it was 0.105 µM; with OVCAR-3 ovarian, 0.0345 µM; in the assay with RXF 393 renal it was 0.141 µM. The GI50 in the assay on SF-539 CNS is 0.202 µM; with SW-620 colon, 0.0341 µM; in the assay on TK-10 renal it was 0.198 µM; with U251 CNS it was 0.0384 µM. Besides, the TGI with HCT-15 colon was above 100 µM; with HOP-92 NSCLC, 0.423 µM; in the assay with NCI-H522 lung it was 0.956 µM; in the assay on OVCAR-3 ovarian, 0.295 µM; in the assay on RXF 393 renal, 1.4 µM; in the assay on SF-539 CNS, 1.72 µM. Further, the TGI in the assay on SW-620 colon is 1.15 µM; in the assay with TK-10 renal it was 1.92 µM; with U251 CNS, 1.29 µM.
As to `CNC(=O)c1c(NC(=O)c2cccc(C(F)(F)F)c2)sc2c1CCC(=O)C2`, the GI50 is 0.249 µM in the assay with HCT-15 colon; 1.94 µM with HOP-62 NSCLC; 0.383 µM in the assay with HOP-92 NSCLC; 0.075 µM in the assay on NCI-H522 lung; 0.448 µM in the assay with OVCAR-3 ovarian; 0.326 µM in the assay with RXF 393 renal. For the same molecule, the GI50 in the assay on SF-539 CNS was 0.339 µM; in the assay on SW-620 colon it was 0.254 µM; in the assay on TK-10 renal, 0.469 µM; in the assay with U251 CNS, 0.259 µM. In addition, the TGI was 1.51 µM with HCT-15 colon; above 48.6 µM in the assay on HOP-62 NSCLC; 2.58 µM in the assay with HOP-92 NSCLC; 0.549 µM in the assay with NCI-H522 lung; 2.04 µM with OVCAR-3 ovarian; 1.97 µM with RXF 393 renal. The TGI in the assay on SF-539 CNS was 1.67 µM; with SW-620 colon, 1.75 µM; in the assay on TK-10 renal it was above 40.8 µM; in the assay with U251 CNS it was 2.73 µM.
For the molecule `COc1ccccc1/C=C1\CCC(CNc2ccc(Cl)cc2)C1=O` (centres undefined), the TGI in the assay on HCT-15 colon turned out to be 7.31 µM; in the assay with HOP-62 NSCLC, 22.9 µM; with HOP-92 NSCLC, 30.6 µM; with NCI-H522 lung, 4.45 µM; in the assay with OVCAR-3 ovarian, 22.9 µM; in the assay on RXF 393 renal, 30.3 µM. Further, the TGI with SF-539 CNS came out at 16 µM; in the assay with SW-620 colon it was 20 µM; in the assay with TK-10 renal, 18.6 µM; in the assay on U251 CNS it was 23.2 µM.
`CCN(CC)CCOc1ccc(Nc2ncc3cc(-c4c(Cl)cccc4Cl)c(=O)n(CCOC)c3n2)cc1`: the GI50 in the assay with HCT-15 colon is 0.128 µM; with HOP-62 NSCLC, 0.0715 µM; with HOP-92 NSCLC it was 0.0163 µM; in the assay on NCI-H522 lung, 0.134 µM; in the assay on OVCAR-3 ovarian, 0.483 µM; in the assay on RXF 393 renal, 0.0184 µM. Further, the GI50 in the assay on SF-539 CNS is 0.0557 µM; with SW-620 colon it was 1.2 µM; with TK-10 renal, 0.0785 µM; in the assay with U251 CNS, 0.608 µM. The TGI with HCT-15 colon was 6.1 µM; in the assay with HOP-62 NSCLC, 7.05 µM; with HOP-92 NSCLC, 0.322 µM; in the assay with NCI-H522 lung, 1.8 µM; in the assay with OVCAR-3 ovarian, 2.96 µM; in the assay with RXF 393 renal it was 0.133 µM. For the same molecule, the TGI with SF-539 CNS was found to be 0.821 µM; with SW-620 colon, 5.86 µM; with TK-10 renal, 0.832 µM; with U251 CNS, 5 µM.
With `COc1ccc(C2=CC(c3cc(OC)c(OC)c(OC)c3)NC(=O)N2)cc1OC` (centres undefined), the GI50 was 2.9 µM in the assay on HCT-15 colon; 3.99 µM in the assay on HOP-62 NSCLC; 12.5 µM in the assay with HOP-92 NSCLC; 2.78 µM in the assay on NCI-H522 lung; 2.13 µM in the assay on OVCAR-3 ovarian; 3.04 µM in the assay with RXF 393 renal. Further, the GI50 was 2.28 µM in the assay on SF-539 CNS, 2.96 µM in the assay on SW-620 colon, 4.48 µM in the assay on TK-10 renal and 3.82 µM in the assay on U251 CNS. Also, the TGI in the assay on HCT-15 colon is 17.7 µM; in the assay with HOP-62 NSCLC it was 19.8 µM; in the assay with HOP-92 NSCLC, above 100 µM; in the assay with NCI-H522 lung, 11.2 µM; with OVCAR-3 ovarian, 5.05 µM; in the assay with RXF 393 renal, 12.7 µM. Moreover, the TGI was 5.94 µM in the assay with SF-539 CNS, 10.2 µM in the assay with SW-620 colon, 41.2 µM with TK-10 renal and 14.1 µM in the assay with U251 CNS.
For `NC1C2C(CC(=O)O)OCC=C3CN4CCC1(C(=O)C(=O)O)C4CC32` (centres undefined), the TGI with HCT-15 colon, in the assay with HOP-62 NSCLC, with HOP-92 NSCLC, with NCI-H522 lung, in the assay on OVCAR-3 ovarian and with RXF 393 renal was above 100 µM in each case. The TGI with SF-539 CNS, in the assay on SW-620 colon, in the assay with TK-10 renal and in the assay on U251 CNS was above 100 µM throughout.
`CC1=C(C(=O)Nc2ccc3[nH]ncc3c2)C(c2ccc(F)cc2)NC(=O)N1` (centres undefined): the GI50 is above 25 µM in the assay on HCT-15 colon; above 25 µM with HOP-62 NSCLC; 0.425 µM in the assay on HOP-92 NSCLC; above 18.2 µM with NCI-H522 lung; above 25 µM in the assay on OVCAR-3 ovarian; above 14.6 µM in the assay on RXF 393 renal. In addition, the GI50 in the assay with SF-539 CNS, in the assay with SW-620 colon, in the assay with TK-10 renal and in the assay on U251 CNS was above 25 µM each time. In addition, the TGI in the assay on HCT-15 colon, with HOP-62 NSCLC, in the assay with HOP-92 NSCLC, in the assay on NCI-H522 lung, in the assay with OVCAR-3 ovarian and with RXF 393 renal was above 25 µM each time. Also, the TGI in the assay with SF-539 CNS, with SW-620 colon, in the assay on TK-10 renal and in the assay with U251 CNS was above 25 µM in each case.
